The results in this text go back to patent US9139542B2, “Crystalline form of a substituted thiazolylacetic acid triethylamine salt” (THERAVANCE BIOPHARMA ANTIBIOTICS IP, LLC, priority 2013, dated 2015).

Data set [1] can be described thus: Thermogravimetric analysis (TGA). Format: physicochemical. The protocol:
Thermogravimetric analysis (TGA) was performed using a TA Instruments Model Q-500 module equipped with high resolution capability. Data were collected and analyzed using TA Instruments Thermal Solutions software. A sample of crystalline (2Z)-2-(2-amino-5-chlorothiazol-4-yl)-2-(3-N-tert -butoxycarbonylaminopropoxyimino)acetic acid triethylamine salt (about 10 mg) was placed onto a platinum pan and scanned with a high resolution-heating rate from ambient temperature to 300° C. The balance and furnace chambers were purged with nitrogen flows during use.

A short description of data set [2]: Dynamic moisture sorption (DMS) assessment. The format is physicochemical. The protocol:
A dynamic moisture sorption (DMS) assessment (also known as a moisture sorption-desorption profile) was performed using a VTI atmospheric microbalance, SGA-100 system (VTI Corp., Hialeah, Fla. 33016). A sample of crystalline (2Z)-2-(2-amino-5-chlorothiazol-4-yl)-2-(3-N-tert-butoxycarbonylaminopropoxyimino)acetic acid triethylamine salt (about 10 mg) was used and the humidity was set at the ambient value at the start of the analysis. A typical DMS analysis consisted of three scans: ambient to 5% relative humidity (RH), 5% RH to 90% RH, 90% RH to 5% RH at a scan rate of 5% RH/step. The mass was measured every two minutes and the RH was changed to the next value (+/−5% RH) when the mass of the sample was stable to within 0.01% for 5 consecutive points.

Molecules are shown by their SMILES.

For the compound `CC(C)(C)OC(=O)NCCCO/N=C(\C(=O)O)c1nc(N)sc1Cl.CCN(CC)CC` [crystalline form, (2Z)-2-(2-amino-5-chlorothiazol-4-yl)-2-(3-N-tert-butoxycarbonylaminopropoxyimino)acetic acid triethylamine salt], the “weight loss (TGA)” value in data set [1] (above 120° C., likely post-melting evaporation of triethylamine and decomposition) was “about 50%”; in data set [1] (temperature range of from 20° C. to 120° C.) it was “less than 0.25%”. In data set [2] (5% RH to 90% RH to 5% RH), the “hygroscopicity (reversible moisture sorption/desorption profile)” value is given as “acceptable hygroscopicity”. The “weight gain (moisture sorption)” value is “insignificant weight gain” in data set [2] (humidity range of 5% RH to 60% RH) and “about 5.56%” in data set [2] (humidity range of 60% RH to 90% RH). In addition, in data set [2] (initial drying, ambient to 5% RH), the “moisture loss on initial drying (DMS)” value was 0.56 % by weight.
